In US20250282810A1, “Chemical Synthesis Method and Application of V. Cholerae Serotype O100 O-Antigen Oligosaccharides” (priority 2024, published 2025):

System: rabbit serum IgG antibodies
Test: Glycan microarray screening of synthetic oligosaccharides with rabbit serum
Format: binding
Conditions: oligosaccharides printed at 0.1 mM and 0.5 mM, LPS at 1 mg/mL and 5 mg/mL, rabbit serum 1:200, cy3 goat anti-rabbit IgG 1:400
Procedure: . Then, a microarray spotter was used for printing distribution grids shown in FIG. 9B onto the area of a microarray (9 mm long*9 mm wide), and incubation was performed overnight at room temperature and 65% humidity to covalently bind oligosaccharide fragments to the microarray. After incubation, a mixed solution (pH=9) of […] ethanolamine and […] sodium phosphate was used for processing at 50° C. for 1 h, and then, ultrapure water was used for washing.
The glycan microarray was blocked with a PBS solution containing 3% BSA at room temperature for 1 h. The glycan microarray was washed once with a PBS solution containing 0.1% Tween 20 (PBST solution), washed twice with a PBS solution, and spin-dried, and the glycan microarray was loaded into a 16-well incubator (ProPlate). 120 microliters of rabbit serum sample diluted in a ratio of 1:200 in a PBS solution containing 1% BSA was added to each well, and incubated overnight in a moist chamber at 4° C. in the dark to allow rabbit serum IgG antibodies identifying the synthetic oligosaccharide fragments to bind to the synthetic oligosaccharides on the glycan microarray, and the sample was removed and washed three times with 200 microliters of PBST solution to remove unbound serum IgG antibodies. […]

## D-FucNAc [synthetic sugar 6*]
  binding ability to IgG antibodies (fluorescence signals): did not bind to antibodies
